{
  "source": "patent US20140221369A1",
  "about": "“5-DEUTERO-2,4-THIAZOLIDINEDIONE AND 5-DEUTERO-2,4-OXAZOLIDINEDIONE DERIVATIVES AND COMPOSITIONS COMPRISING AND METHODS OF USING THE SAME” (DeuteRx, LLC, priority 2013, published 2014)",
  "key": {"[1]": {"test": "In vitro stability in human plasma at 37° C. (enantiomerization and D/H exchange, chiral LC/MS-MS, kinetic fit)", "format": "in vitro ADME", "conditions": "for k, h+ → h− / k, h− → h+: enantiomerization rate constant, fit of the stability data of the protonated enantiomer", "method": "The (+)-5-[(p-{[6-(4-amino-3,5-xylyloxy)-1-methyl-1,3-diaza-1H-inden-2-yl]methoxy}phenyl)methyl]-1,3-thiazolidine-2,4-dione, (−)-5-[(p-{[6-(4-amino-3,5-xylyloxy)-1-methyl-1,3-diaza-1H-inden-2-yl]methoxy}phenyl)methyl]-1,3-thiazolidine-2,4-dione, and rac-5-[(p-{[6-(4-amino-3,5-xylyloxy)-1-methyl-1,3-diaza-1H-inden-2-yl]methoxy}phenyl)methyl]-(5-^2H)-1,3-thiazolidine-2,4-dione were incubated in human plasma (K3EDTA as anticoagulant) at 37° C. in duplicates. […] It also contained ˜15% of the protonated enantiomers. Aliquots were removed at time=0, 5, 10, 15, 30 min, and 1, 2, 4, and 8 hours. Plasma proteins were precipitated by addition of acetonitrile containing cisapride as an internal standard (ISTD) and the supernatants were analyzed semi-quantitatively by LC/MS-MS with elution on a chiral column (Daicel ChiralPak IC-3) for the separation of enantiomers (isocratic method of 30:70 v/v 20 mM ammonium bicarbonate in water (pH=9.0) and acetonitrile). Peak areas for the deuterated enantiomers (+)-5-[(p-{[6-(4-amino-3,5-xylyloxy)-1-methyl-1,3-diaza-1H-inden-2-yl]methoxy}phenyl)methyl]-1,3-thiazolidine-2,4-dione and (−)-5-[(p-{[6-(4-amino-3,5-xylyloxy)-1-methyl-1,3-diaza-1H-inden-2-yl]methoxy}phenyl)methyl]-(5-^2H)-1,3-thiazolidine-2,4-dione were normalized to the ISTD and corrected for the isotopic peak of the corresponding protonated enantiomer, (+)-5-[(p-{[6-(4-amino-3,5-xylyloxy)-1-methyl-1,3-diaza-1H-inden-2-yl]methoxy}phenyl)methyl]-1,3-thiazolidine-2,4-dione and (−)-5-[(p-{[6-(4-amino-3,5-xylyloxy)-1-methyl-1,3-diaza-1H-inden-2-yl]methoxy}phenyl)methyl]-1,3-thiazolidine-2,4-dione, respectively, if present. Corrected data were analyzed and plotted using Microsoft Excel 2013 (Microsoft Corp, Redmond, Wash.) and the Excel Solver.\nScheme 1 illustrates possible reactions in a solution of a mixture of deuterated enantiomers when no degradation or side-reactions occur. The deuterium in both enantiomers, d+ and d−, can be lost by D/H exchange to give both protonated enantiomers, h+ and h− with rate constants kD++, kD+−, kD−+, kD−−, where D indicates D/H exchange, the first +/− represents the reagent, d+ or d−, and the second +/− stands for the product, h+ or h−. At the same time, the protonated enantiomers h+ and h− can exchange, with enantiomerization rate constants k+− and k−+.\nIllustration of possible reactions and corresponding rate constants in a solution of rac-5-[(p-{[6-(4-amino-3,5-xylyloxy)-1-methyl-1,3-diaza-1H-inden-2-yl]methoxy}phenyl)methyl]-(5-^2H)-1,3-thiazolidine-2,4-dione where d+, d−, h+, h− stand for […] and (−)-5-[(p-{[6-(4-amino-3,5-xylyloxy)-1-methyl-1,3-diaza-1H-inden-2-yl]methoxy}phenyl)methyl]-(5-^2H)-1,3-thiazolidine-2,4-dione and (+)- and (−)-5-[(p-{[6-(4-amino-3,5-xylyloxy)-1-methyl-1,3-diaza-1H-inden-2-yl]methoxy}phenyl)methyl]-1,3-thiazolidine-2,4-dione, respectively.\nIndependent analyses of the data for h+ and h− were performed first and the average rate constants k+− and k−+ from these two fits were calculated and used as constants in the fitting of the stability data of the deuterated racemate. Calculated concentrations were obtained through numerical approximation of differential equations (1) and (2) for the stability studies of h+ and h− and equations (3) to (6) for the stability study of the enantiomeric mixture of deuterated d+ and d− by the Euler method (equation (7)). The step between calculated time points was minimized in order to minimize the local error (proportional to the square of the step size) and the global error (proportional to the step size). Data analysis was performed in Microsoft Excel 2013, using the Solver Generalized Reduced Gradient Nonlinear method with central derivatives to minimize the sum of sums of weighted Δ^2, square of difference between ISTD-normalized experimental data and calculated value, divided by the experimental data. […]"}, "[2]": {"biological_target": "T1, peroxisome proliferator-activated receptor gamma (PPARγ) (Homo sapiens, UniProt P37231)", "T1 construct": "label (kind not specified); Cerep (France), contract assay", "T1 sequence (P37231 whole entry)": "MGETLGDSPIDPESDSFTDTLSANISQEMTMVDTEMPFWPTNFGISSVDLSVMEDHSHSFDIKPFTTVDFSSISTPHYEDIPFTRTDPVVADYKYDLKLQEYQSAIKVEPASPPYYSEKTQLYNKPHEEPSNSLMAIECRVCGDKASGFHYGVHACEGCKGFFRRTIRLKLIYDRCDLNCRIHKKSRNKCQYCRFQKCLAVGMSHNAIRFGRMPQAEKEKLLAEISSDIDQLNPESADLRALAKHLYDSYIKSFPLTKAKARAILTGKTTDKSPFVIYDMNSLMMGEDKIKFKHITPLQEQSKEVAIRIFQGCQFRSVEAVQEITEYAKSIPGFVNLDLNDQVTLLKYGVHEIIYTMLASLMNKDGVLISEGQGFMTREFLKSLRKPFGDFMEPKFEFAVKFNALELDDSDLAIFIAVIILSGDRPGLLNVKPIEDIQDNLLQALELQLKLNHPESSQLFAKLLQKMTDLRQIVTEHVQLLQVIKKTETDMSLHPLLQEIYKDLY", "T1 sequence (Q15648 whole entry partner)": "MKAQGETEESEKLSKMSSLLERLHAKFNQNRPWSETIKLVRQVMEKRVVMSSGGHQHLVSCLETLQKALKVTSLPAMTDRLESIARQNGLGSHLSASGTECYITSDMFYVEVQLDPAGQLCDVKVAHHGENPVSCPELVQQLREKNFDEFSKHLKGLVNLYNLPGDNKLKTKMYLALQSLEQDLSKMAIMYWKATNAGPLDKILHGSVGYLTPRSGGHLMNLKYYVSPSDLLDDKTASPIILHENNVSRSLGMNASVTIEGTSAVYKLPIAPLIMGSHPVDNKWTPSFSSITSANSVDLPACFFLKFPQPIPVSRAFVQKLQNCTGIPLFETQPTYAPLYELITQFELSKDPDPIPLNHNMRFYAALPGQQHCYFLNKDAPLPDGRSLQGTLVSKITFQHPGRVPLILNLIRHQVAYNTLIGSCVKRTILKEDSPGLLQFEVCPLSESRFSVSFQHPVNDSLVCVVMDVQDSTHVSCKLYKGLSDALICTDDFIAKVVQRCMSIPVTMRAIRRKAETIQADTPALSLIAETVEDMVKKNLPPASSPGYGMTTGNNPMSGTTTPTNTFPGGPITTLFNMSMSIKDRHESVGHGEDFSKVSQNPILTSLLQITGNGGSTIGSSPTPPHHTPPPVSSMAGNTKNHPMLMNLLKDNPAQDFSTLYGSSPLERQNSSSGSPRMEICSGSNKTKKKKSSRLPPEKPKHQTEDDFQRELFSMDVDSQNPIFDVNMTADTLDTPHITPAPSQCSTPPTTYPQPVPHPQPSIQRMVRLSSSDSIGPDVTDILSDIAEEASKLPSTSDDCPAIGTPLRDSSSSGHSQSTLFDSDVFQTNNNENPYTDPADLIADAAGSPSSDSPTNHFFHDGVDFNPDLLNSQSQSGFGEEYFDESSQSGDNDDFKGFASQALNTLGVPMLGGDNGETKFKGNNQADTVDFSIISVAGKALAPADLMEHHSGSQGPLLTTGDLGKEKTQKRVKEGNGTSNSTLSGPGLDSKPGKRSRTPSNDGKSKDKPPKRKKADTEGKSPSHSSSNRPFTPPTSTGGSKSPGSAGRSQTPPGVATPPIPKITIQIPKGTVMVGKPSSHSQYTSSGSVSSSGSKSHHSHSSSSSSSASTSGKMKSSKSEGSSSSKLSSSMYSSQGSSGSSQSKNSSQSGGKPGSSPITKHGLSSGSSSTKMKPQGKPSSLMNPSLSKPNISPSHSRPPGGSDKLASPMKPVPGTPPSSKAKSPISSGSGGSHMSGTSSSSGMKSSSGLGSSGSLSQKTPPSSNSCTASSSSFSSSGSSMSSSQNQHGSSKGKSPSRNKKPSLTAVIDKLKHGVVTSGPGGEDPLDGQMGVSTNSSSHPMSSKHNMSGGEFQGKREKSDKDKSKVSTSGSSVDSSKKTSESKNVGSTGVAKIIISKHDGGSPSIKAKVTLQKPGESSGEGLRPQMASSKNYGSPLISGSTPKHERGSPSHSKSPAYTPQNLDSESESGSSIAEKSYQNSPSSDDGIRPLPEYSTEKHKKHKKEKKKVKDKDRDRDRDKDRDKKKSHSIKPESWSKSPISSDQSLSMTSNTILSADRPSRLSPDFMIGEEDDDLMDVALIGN", "test": "TRAP220 PPARγ coactivator recruitment assay (Cerep)", "format": "biochemical", "conditions": "for EC50: TRAP220 coactivator recruitment, percent of control (10 μM rosiglitazone), four-parameter fit, read-out: EC50, PPARγ agonist activity", "method": "The agonist activity of (+)- and (−)-5-[(p-{[6-(4-amino-3,5-xylyloxy)-1-methyl-1,3-diaza-1H-inden-2-yl]methoxy}phenyl)methyl]-(5-^2H)-1,3-thiazolidine-2,4-dione at the peroxisome proliferator-activated receptor gamma (PPARγ) was evaluated in the thyroid receptor-associated protein complex, 220 kDa component (TRAP220) PPARγ coactivator recruitement assay performed at Cerep (France). Briefly, a mixture of labeled PPARγ and TRAP220 coactivator was pre-incubated with a fluorescence acceptor at room temperature for 30 minutes in the presence of a fluorescence acceptor and the test compound. A fluorescence donor was then added and the mixture was incubated for 120 minutes at room temperature. The fluorescence signal was measured and results expressed as a percent of control (10 μM rosiglitazone). A dose response curve was generated for each enantiomer and the experimental data was analyzed using the log(agonist) vs. response−variable slope (four parameters) nonlinear model in GraphPad Prism 6.0 (GraphPad Software, Inc., La Jolla, Calif.)."}, "[3]": {"conditions": "D/H exchange rate constant, mixture of d− and d+ in human plasma at 37° C., fit to Equations 1 to 6"}, "[4]": {"conditions": "average of enantiomerization rate constants obtained by fitting data for h− and h+, human plasma at 37° C."}},
  "data": [
    {"smiles": "[2H]C1(Cc2ccc(OCc3nc4ccc(Oc5cc(C)c(N)c(C)c5)cc4n3C)cc2)SC(=O)NC1=O", "note": "(racemic) [d−/d+, rac-5-[(p-{[6-(4-amino-3,5-xylyloxy)-1-methyl-1,3-diaza-1H-inden-2-yl]methoxy}phenyl)methyl]-(5-^2H)-1,3-thiazolidine-2,4-dione]", "values": [
      {"measurement": "k, d+ → h+", "setting": "[1]; [3]", "result": 0, "unit": "h⁻¹"},
      {"measurement": "k, d+ → h−", "setting": "[1]; [3]", "result": 0.300, "unit": "h⁻¹"},
      {"measurement": "k, d− → h+", "setting": "[1]; [3]", "result": 0.211, "unit": "h⁻¹"},
      {"measurement": "k, d− → h−", "setting": "[1]; [3]", "result": 0.499, "unit": "h⁻¹"},
      {"measurement": "k, h+ → h− (average used in analysis of the deuterated mixture)", "setting": "[1]; [4]", "result": 0.802, "unit": "h⁻¹"},
      {"measurement": "k, h− → h+ (average used in analysis of the deuterated mixture)", "setting": "[1]; [4]", "result": 0.668, "unit": "h⁻¹"}
    ]},
    {"smiles": "Cc1cc(Oc2ccc3nc(COc4ccc(CC5SC(=O)NC5=O)cc4)n(C)c3c2)cc(C)c1N", "note": "(single isomer, unassigned; (+)) [d+, (+)-5-[(p-{[6-(4-amino-3,5-xylyloxy)-1-methyl-1,3-diaza-1H-inden-2-yl]methoxy}phenyl)methyl]-(5-^2H)-1,3-thiazolidine-2,4-dione]", "values": [
      {"measurement": "potency relative to the (−) enantiomer d− (fold less potent)", "setting": "[2]; ratio of EC50", "result": 7, "unit": "fold"}
    ]},
    {"smiles": "[2H]C1(Cc2ccc(OCc3nc4ccc(Oc5cc(C)c(N)c(C)c5)cc4n3C)cc2)SC(=O)NC1=O", "note": "(single isomer, unassigned; (+)) [d+, (+)-5-[(p-{[6-(4-amino-3,5-xylyloxy)-1-methyl-1,3-diaza-1H-inden-2-yl]methoxy}phenyl)methyl]-(5-^2H)-1,3-thiazolidine-2,4-dione]", "values": [
      {"measurement": "EC50", "setting": "[2]", "result": 0.0487, "unit": "µM"},
      {"measurement": "stability of d+ relative to h+", "setting": "[1]; human plasma at 37° C.", "result": "2-3 fold"}
    ]},
    {"smiles": "Cc1cc(Oc2ccc3nc(COc4ccc(CC5SC(=O)NC5=O)cc4)n(C)c3c2)cc(C)c1N", "note": "(single isomer, unassigned; (+)) [h+, (+)-5-[(p-{[6-(4-amino-3,5-xylyloxy)-1-methyl-1,3-diaza-1H-inden-2-yl]methoxy}phenyl)methyl]-1,3-thiazolidine-2,4-dione, reference compound]", "values": [
      {"measurement": "k, h+ → h−", "setting": "[1]; human plasma at 37° C.", "result": 0.803, "unit": "h⁻¹"},
      {"measurement": "k, h− → h+", "setting": "[1]; human plasma at 37° C.", "result": 0.665, "unit": "h⁻¹"}
    ]},
    {"smiles": "[2H]C1(Cc2ccc(OCc3nc4ccc(Oc5cc(C)c(N)c(C)c5)cc4n3C)cc2)SC(=O)NC1=O", "note": "(single isomer, unassigned; (-)) [d−, (−)-5-[(p-{[6-(4-amino-3,5-xylyloxy)-1-methyl-1,3-diaza-1H-inden-2-yl]methoxy}phenyl)methyl]-(5-^2H)-1,3-thiazolidine-2,4-dione]", "values": [
      {"measurement": "EC50", "setting": "[2]", "result": 0.0074, "unit": "µM"},
      {"measurement": "stability of d− relative to h−", "setting": "[1]; human plasma at 37° C.", "result": "not more stable than h−"}
    ]},
    {"smiles": "Cc1cc(Oc2ccc3nc(COc4ccc(CC5SC(=O)NC5=O)cc4)n(C)c3c2)cc(C)c1N", "note": "(single isomer, unassigned; (-)) [h−, (−)-5-[(p-{[6-(4-amino-3,5-xylyloxy)-1-methyl-1,3-diaza-1H-inden-2-yl]methoxy}phenyl)methyl]-1,3-thiazolidine-2,4-dione, reference compound]", "values": [
      {"measurement": "k, h+ → h−", "setting": "[1]; human plasma at 37° C.", "result": 0.800, "unit": "h⁻¹"},
      {"measurement": "k, h− → h+", "setting": "[1]; human plasma at 37° C.", "result": 0.671, "unit": "h⁻¹"}
    ]}
  ]
}
